Experimental data from patent US20080311657A1, “Killing Human Lymphoma and Leukemia Cancer Cells and Tcr-Activated Normal Human Cells By Dopamine D1r Agonists” (priority 2005, published 2008).

Experiments:
Assay in all cases: Number of living cells counted by flow cytometry (FACSort) after D1R agonist
Format in all cases: cell-based
[1] = system: Human T-cell leukemia (Jurkat) cells
Experimental: Afterwards, the microtiter plates were placed in an incubator (37° C., humidified incubator, 5% CO2) for 3 days. Then, the number of living cells was evaluated by flow cytometry (the cells were counted by FACsort for a fixed time length of 1 min, in which 100 microliter of each sample was tested). Of note, A 77636 hydrochloride is an orally-active D1R agonist, according to the manufacturer (Tocris).
(§1) Afterwards, the microtiter plates were placed in an incubator (37° C., humidified incubator, 5% CO2) for 3 days. Then, the number of living cells was evaluated by flow cytometry (the cells were counted by FACsort for a fixed time length of 1 min, in which 100 microliter of each sample was tested).
(§2) The experiment was designed to test the effect of exposing the cells to the D1R agonist for 1 min, 15 min, 1 hr or 72 hr. Thus, 1 min, or 15 min or 1 hr after the addition of the D1R agonist, the corresponding cells were transferred into tubes, centrifuged (1000 rpm for 10 min); and the supernatant was removed. […] Thus, its medium was not replaced, and these cells and remained as such in the incubator for 72 hr. At the end of the 72 hr incubation, the number of living cells was evaluated by flow cytometry (the cells were counted by FACsort for a fixed time length of 1 min, in which 100 microliter of each sample was tested).
(§3) Cell viability was tested afterwards.
(§4) For this purpose, the Jurkat T-cell leukemia line, the HuT-78 human T-lymphoma (cutaneous “Sezary” T-lymphoma) line, and the K-562 human Chronic-Myeloid Leukemia (CML) and Daudi Human B-lymphoma (Burkitt's lymphoma) lines were seeded in tissue culture wells (0.5 million cells/0.5 ml/well).
(§5) Cell survival/death was evaluated 3 days later by counting the number of living cells, using flow cytometry.

[2] = system: Human chronic myelogenous leukemia cells (CML) (K-562); conditions: for % of the cells killed: living cells counted 3 days later
Experimental: (§6) Human chronic myelogenous leukemia cells (CML) (K-562) were seeded in 96 well plates (0.5 ml per well of 0.5 million cells/ml) and A 77636 hydrochloride was added and diluted 1:00 into the wells at starting concentrations of 10^−1M-10^−4M, so that the final concentration range tested was 10^−3M-10^−6M. Afterwards, the microtiter plates were placed in an incubator (37° C., humidified incubator, 5% CO2) for 3 days. Then, the number of living cells was evaluated by flow cytometry (the cells were counted by FACsort for a fixed time length of 1 min, in which 100 microliter of each sample was tested).
as §6, with “68930” for “77636”
as §6, with “SKF 38393 hydrobromide” for “A 77636 hydrochloride”
as §2, with “Human chronic myelogenous leukemia cells (CML) (K-562) were seeded in 96 well plates (0.5 ml per well of 0.5 million cells/ml) and A 77636 hydrochloride was added and diluted 1:00 into the wells, at a fixed starting concentration of 10^−2M, so that the final concentration tested was 10^−4M. The” for “The”, “min),” for “min);”
as §3, §4, §5
(§7) The effect of dopamine itself (that can of course activate all its D1R-5 receptors) was also tested. All of these molecules were tested at a similar concentration (10^−4 M). […] The specificity and restriction of the effect to the D1R is also seen in Tables 7 and 8.

[3] = system: Human Burkitt's B-lymphoma cells (Daudi); conditions: 10^−3M-10^−6M, 3 days
Experimental: as §6, with “Burkitt's B-lymphoma” for “chronic myelogenous leukemia”, “(Daudi)” for “(CML) (K-562)”, “Afterwards, the microtiter plates were placed in an incubator (37° C., humidified incubator, 5% CO2) for 3 days.” left out
as §6, with “Burkitt's B-lymphoma” for “chronic myelogenous leukemia”, “(Daudi)” for “(CML) (K-562)”, “68930” for “77636”, “Afterwards, the microtiter plates were placed in an incubator (37° C., humidified incubator, 5% CO2) for 3 days.” left out
[…] Then, the number of living cells was evaluated by flow cytometry (the cells were counted by FACsort for a fixed time length of 1 min, in which 100 microliter of each sample was tested).
as §3, §7

[4] = system: resting normal human T-cells
Experimental: as §1
FIGS. 31A and B are graphs showing that A 77636 hydrochloride kills much more TCR-activated (FIG. 31B) than resting normal (FIG. 31A) human T-cells. […] The cells were then transferred to the incubator for 72 hr incubation. At the end of the 72 hr incubation, the number of living cells in each well was evaluated by flow cytometry (the cells were counted by FACsort for a fixed time length of 1 min, in which 100 microliter of each sample was tested).
as §3

[5] = 10^−4M, exposure 1 min, 15 min, 1 hr or 72 hr

With `Cl.NC[C@@H]1O[C@H](C23CC4CC(CC(C4)C2)C3)Cc2c1ccc(O)c2O` [A 77636 hydrochloride, (1R-cis)-1-(aminomethyl)-3,4-dihydro-3-tricyclo[3.3.1.13,7]dec-1-yl-[1H]-2-benzopyran-5,6-diol hydrochloride] as the molecule, how does the “Cell death by number of living cells (FIGS. 10-12), in words” value ([1]; 10^−3M-10^−6M, 3 days) read?
The value was “induces marked cell death”.

And the “Killing, in words” value ([1]; 10^−4M, 1 min incubation then washed, living cells counted 3 days later)?
Its value is “not sufficient to cause marked cell death”.

What about the “Killing, in words” value ([1]; 10^−4M, 15 minutes then washed, living cells counted 3 days later) of the same molecule?
Its value is “significant”.

What about the “% of the cells killed (maximum)” value ([1]; 10^−4M, 1 hour of incubation then washed, living cells counted 3 days later) of the same molecule?
Its value is 94%.

What about the “Killing, in words” value ([1]; 10^−4M, 72 hour incubation) of the same molecule?
Its value is “no further effect”.

And the “Speed of cell death by number of living cells (FIG. 30), in words” value [1, 5]?
The value was “very rapid death”.

What about the “Cell death by number of living cells (FIGS. 22-24), in words” value ([2]; 10^−3M-10^−6M, 3 days) of the same molecule?
Its value is “induces marked cell death”.

What about the “% of the cells killed” value ([2]; 10^−4M, exposure 1 minute then washed) of the same molecule?
Its value is “≈ 48%”.

And the “% of the cells killed” value ([2]; 10^−4M, exposure 15 minutes then washed)?
The value was 60%.

What about the “% of the cells killed” value ([2]; 10^−4M, exposure 1 hour then washed) of the same molecule?
The value was 76%.

What about the “Killing, in words” value ([2]; 10^−4M, incubation 72 hours) of the same molecule?
Its value is “no additional value beyond the 1-hour effect”.

What about the “Speed of cell death by number of living cells (FIG. 29), in words” value [2, 5] of the same molecule?
The value was “very rapid death”.

And the “Cell death by number of living cells (FIGS. 16-18), in words” value [3]?
Its value is “induces marked cell death”.

And the “Killing effect by number of living cells (FIGS. 25-27), in words” value ([4]; 10^−3M-10^−6M, 3 days)?
Its value is “significantly milder killing effect”.

And the “% of cells killed” value ([4]; 10^−5 M, 72 hr)?
The value was 12%.
